Measurements published in ChEMBL document CHEMBL1126479, “Refinement of a molecular model of angiotensin II (AII) employed in the discovery of potent nonpeptide antagonists” (Bioorg Med Chem Lett, 1993).

Key:
[1] = The compound was evaluated for the inhibition of [125I]- Angiotensin II (AII) binding to rat mesenteric membranes; assay type: cell membranes, Membrane
[2] = species on record: Oryctolagus cuniculus; assay: The compound was evaluated for the inhibition of angiotensin II (AII) induced rabbit aorta constriction; assay type: functional
[3] = test system: Rattus norvegicus; assay: The compound was evaluated for the inhibition of Angiotensin II (AII) pressor response in conscious normotensive rats; assay type: functional; details: read-out: ID50 (the source's name)

| SMILES | IC50 [1] [µM] | Kb [2] [nM] | ED50 [3] [mg/kg] |
| --- | --- | --- | --- |
| CCCCc1ncc(/C=C\C(=O)O)n1Cc1ccccc1Cl | 8.9 | 810 |  |
| CCCCc1ncc(/C=C(/Cc2ccsc2)C(=O)O)n1Cc1ccc(C(=O)O)cc1 |  | 0.21 | 0.08 |
| CCCCc1ncc(/C=C(/Cc2ccsc2)C(=O)O)n1Cc1ccccc1Cl |  | 51 | 3.6 |
| CCCCc1ncc(CC(=O)O)n1Cc1ccccc1Cl |  |  | 22.5 |
| CCCCc1nc(Cl)c(CC(=O)O)n1Cc1ccccc1Cl |  | 2700 | 30 |
| CCCCc1ncc(/C=C(/Cc2ccccc2)C(=O)O)n1Cc1ccccc1Cl | 2.6 | 64 | 14 |
